{"source": "patent US20210285031A1", "about": "“FRET BASED PROTEIN BIOSENSOR FOR DETECTION OF CYCLIC DINUCLEOTIDES” (University of Washington, priority 2020, published 2021)", "key": {"[1]": {"biological_target": "T1, full length Lmo0553 fused to eCFP (N terminus) and eYFP (C terminus) (Listeria monocytogenes, UniProt Q8Y9H5)", "T1 construct": "recombinant, purified", "assay": "FRET response, full length Lmo0553 fusion", "type": "biochemical", "excerpt": "To leverage these structural rearrangements, the FRET pair eCFP and eYFP were respectively fused to the N and C termini of full length Lmo0553. […] Additional engineering may have allowed for the generation of a FRET biosensor utilizing full length Lmo0553, but without a response to optimize, these efforts would have been arduous and potentially unsuccessful."}, "[2]": {"system": "STING", "details": "background; cited from earlier work"}, "[3]": {"biological_target": "T2, CDA5 (eCFP-Lmo0553 Bateman domain (truncated at N-127)-eYFP FRET fusion; SEQ ID NO:36, Bateman domain SEQ ID NO:35) (Listeria monocytogenes, UniProt Q8Y9H5)", "assay": "In vitro FRET measurement, CDA5"}, "[4]": {"biological_target": "T3, CDA5 variant Y34A (parent CDA5, Lmo0553 Bateman domain) (Listeria monocytogenes, UniProt Q8Y9H5, Y34A)", "assay": "DRaCALA binding assay, CDA5 Y34A", "procedure": "(§3) It was hypothesized that by replacing the stabilizing tyrosine ring with an alanine (Y34A), c-di-AMP binding would be minimized in a manner unlikely to disrupt protein stability. […] Next, increasing concentrations of c-di-AMP were added to purified CDA5 and Y34A CDA5 and analyzed by plate reader assay for FRET response."}, "[5]": {"biological_target": "T3, CDA5 variant Y34A (parent CDA5, Lmo0553 Bateman domain)", "assay": "In vitro FRET measurement, CDA5 Y34A", "details": "increasing concentrations of c-di-AMP", "procedure": "as §3"}, "[6]": {"biological_target": "T2, CDA5 (eCFP-Lmo0553 Bateman domain (truncated at N-127)-eYFP FRET fusion; SEQ ID NO:36, Bateman domain SEQ ID NO:35)", "assay": "DRaCALA radioactive nucleotide binding assay, CDA5"}, "[7]": {"biological_target": "Listeria monocytogenes Lmo0553, full length (Listeria monocytogenes, UniProt Q8Y9H5)", "assay": "DRaCALA radioactive nucleotide binding assay, full length Lmo0553"}, "[8]": {"biological_target": "T4, BioSTING (Mus musculus, UniProt Q3TBT3)", "T4 construct": "made in house; host or cells: E. coli Rosetta (DE3)pLysS", "T4 sequence (Q3TBT3 with tags, fused parts or gaps)": "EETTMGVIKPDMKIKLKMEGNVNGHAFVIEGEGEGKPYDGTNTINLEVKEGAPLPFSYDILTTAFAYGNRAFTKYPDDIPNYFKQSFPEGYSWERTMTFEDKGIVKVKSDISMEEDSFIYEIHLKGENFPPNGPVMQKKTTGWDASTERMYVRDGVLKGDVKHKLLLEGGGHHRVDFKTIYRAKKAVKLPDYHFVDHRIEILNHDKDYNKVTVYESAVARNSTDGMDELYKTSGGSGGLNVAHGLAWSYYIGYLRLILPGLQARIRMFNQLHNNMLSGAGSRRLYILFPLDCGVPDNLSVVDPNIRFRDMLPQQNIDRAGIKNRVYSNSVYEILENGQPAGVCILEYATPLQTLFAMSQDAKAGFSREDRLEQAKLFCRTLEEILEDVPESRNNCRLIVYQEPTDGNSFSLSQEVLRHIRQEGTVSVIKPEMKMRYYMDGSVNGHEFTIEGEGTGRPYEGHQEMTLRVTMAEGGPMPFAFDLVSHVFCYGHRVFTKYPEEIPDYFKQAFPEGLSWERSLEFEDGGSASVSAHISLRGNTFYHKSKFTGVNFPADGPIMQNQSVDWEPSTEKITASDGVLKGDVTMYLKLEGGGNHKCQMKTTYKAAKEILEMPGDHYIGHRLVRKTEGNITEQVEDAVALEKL", "assay": "DRaCALA binding specificity: excess unlabeled nucleotides competing with [32P] 2′3′-cGAMP", "set-up": "species or system murine", "details": "500 μM excess unlabeled nucleotide, ~1 nM [32P] 2′3′-cGAMP"}, "[9]": {"biological_target": "T5, BioSTING (mTFP-GGSGG-murine STING CTD (L152-E335)-mKO2 FRET fusion; SEQ ID NO:34, CDN binding domain SEQ ID NO:33) (Mus musculus, UniProt Q3TBT3)", "T5 construct": "His tag (inferred from Ni-NTA purification and the pET15b vector); made in house; host or cells: E. coli Rosetta (DE3)pLysS", "T5 sequence (Q3TBT3 with tags, fused parts or gaps)": "T4 sequence (Q3TBT3 with tags, fused parts or gaps)", "assay": "DRaCALA radioactive nucleotide binding assay, BioSTING", "details": "500 μM unlabeled nucleotide, ~1 nM [32P] 2′3′-cGAMP", "excerpt": "(§1) FIGS. 1A-1H. BioSTING Design and Optimization. (1A) Schematic representation of full-length STING (top) and BioSTING with additional GGSGG linker between mTFP and STING-CTD (bottom). Abbreviations are defined as follows: TM (transmembrane region), DD (dimerization domain), CBD (CDN binding domain), and CTT (C-terminal tail). (1B) Overlay and structural alignment of human STING CTD in apo (“blue”) and c-di-GMP bound (“gray”) states (PDB 4F5E and 4F5D, respectively). […] The N and C-terminal helices of the CTD are highlighted with the terminal residues in red and their associated displacement following ligand binding labeled in angstroms. (1C) Model of the FRET increase which occurs upon CDN binding. Generated with Biorender.com. […] In all panels, individual data points of n=2 biological replicates are shown.\n(§2) Finally, the dissociation kinetics were monitored by determining the rate that cold nucleotide could compete off bound radioactive nucleotide. […] [^32P] […] Binding assays were performed in binding buffer [40 mM Tris pH 7.5, 100 mM NaCl, 20 mM MgCl2] at room temperature."}, "[10]": {"biological_target": "T6, murine STING CTD (mSTING-CTD; CDN binding domain SEQ ID NO:33) (Mus musculus, UniProt Q3TBT3)", "T6 construct": "6xHis; made in house; host or cells: E. coli Rosetta (DE3)pLysS", "T6 sequence (Q3TBT3 134-378 limits assumed)": "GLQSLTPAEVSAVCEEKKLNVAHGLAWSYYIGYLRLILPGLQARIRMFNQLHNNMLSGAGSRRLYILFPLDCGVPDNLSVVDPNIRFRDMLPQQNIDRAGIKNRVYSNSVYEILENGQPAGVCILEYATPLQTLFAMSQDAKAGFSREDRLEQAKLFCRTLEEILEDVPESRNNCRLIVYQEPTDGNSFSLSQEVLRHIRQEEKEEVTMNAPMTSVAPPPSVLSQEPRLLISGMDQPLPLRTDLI", "assay": "DRaCALA radioactive nucleotide binding assay, STING-CTD", "details": "500 μM unlabeled nucleotide, ~1 nM [32P] 2′3′-cGAMP", "excerpt": "as §1\nFIGS. 6A and 6B. BioSTING development and characterization.\nas §2"}, "[11]": {"biological_target": "T7, cGAS (recombinant SUMO-mcGAS) (Mus musculus, UniProt Q8C6L5)", "T7 construct": "product read by BioSTING", "assay": "cGAS activity assay measuring 2′3′-cGAMP production using BioSTING", "type": "biochemical", "details": "fixed cGAS; 250 μM ATP, 250 μM GTP, 50 ng ISD; 37° C.", "method": "FIGS. 2A-2F. Real time measurement of CDN synthesis and determination of CDN levels from cellular extracts. […]. In panels (2B)-(2D) and (2F), data are presented as mean±s.d. of n=3 (2B, 2F) or n=8 (2C, 2D) biological replicates.\nBioSTING FRET assays are carried out in a 96-well format using a fluorescent plate reader making it amenable to in vitro high throughput screening efforts (FIG. 7B). […]. In addition to screening for modulators of CDN synthase activity, BioSTING could also potentially be used to screen directly for STING agonists and antagonists.\nEnzyme assays were initiated by the addition of 1 mM ATP, 1 mM GTP and 1 μg ISD (FIGS. 2B, 7A, and 7B) or by the addition of 250 μM ATP, 250 μM GTP, and 50 ng ISD (FIGS. 2C, 2D, and 7C)."}, "[12]": {"system": "cGAS", "details": "literature value (Pfizer); read-out: reported IC50; cited from earlier work"}, "[13]": {"details": "excess (500 μM) unlabeled c-di-AMP, DRaCALA"}}, "data": [{"smiles": "Nc1ncnc2c1ncn2[C@@H]1O[C@@H]2COP(=O)(O)O[C@H]3[C@@H](O)[C@H](n4cnc5c(N)ncnc54)O[C@@H]3COP(=O)(O)O[C@H]2[C@H]1O", "note": "[3′3′-c-di-AMP, 3′3′-cyclic di-adenosine monophosphate]", "values": [{"measurement": "FRET response upon the addition of c-di-AMP", "setting": "[1]", "value": "no FRET response was observed"}, {"measurement": "affinity for STING relative to 2′3′-cGAMP", "setting": "[2]", "value": "markedly reduced affinities"}, {"measurement": "EC50", "setting": "[3]", "value": 0.38, "unit": "µM"}, {"measurement": "kon (less than the sampling limit)", "setting": "[3]; FRET responses stable immediately upon addition of c-di-AMP", "value": "< 10", "unit": "s"}, {"measurement": "Emax", "setting": "[3]; read-out: FRET increase", "value": 23, "unit": "%"}, {"measurement": "c-di-AMP binding", "setting": "[4]", "value": "c-di-AMP bound to CDA5 but not the Y34A CDA5 point mutant control"}, {"measurement": "FRET increase upon the addition of c-di-AMP", "setting": "[5]", "value": "CDA5 but not Y34A CDA5 produced a robust FRET increase"}, {"measurement": "Kd", "setting": "[6]", "value": 5.87, "unit": "µM"}, {"measurement": "competition of bound [32P] c-di-AMP by unlabeled nucleotide", "setting": "[6]", "value": "only unlabeled c-di-AMP"}, {"measurement": "koff (time for competition by unlabeled c-di-AMP)", "setting": "[6]; [13]", "value": "completely within two seconds"}, {"measurement": "Kd", "setting": "[7]", "value": 4.83, "unit": "µM"}, {"measurement": "competition of bound [32P] c-di-AMP by unlabeled nucleotide", "setting": "[7]", "value": "only unlabeled c-di-AMP"}, {"measurement": "koff (time for competition by unlabeled c-di-AMP)", "setting": "[7]; [13]", "value": "completely within two seconds"}]}, {"smiles": "Nc1nc2c(ncn2[C@@H]2O[C@@H]3COP(=O)(O)O[C@H]4[C@@H](O)[C@H](n5cnc6c(N)ncnc65)O[C@@H]4COP(=O)(O)O[C@H]3[C@H]2O)c(=O)[nH]1", "note": "[3′3′-cGAMP, 3′,3′-cyclic GMP AMP]", "values": [{"measurement": "affinity for STING relative to 2′3′-cGAMP", "setting": "[2]", "value": "markedly reduced affinities"}]}, {"smiles": "Nc1ncnc2c1ncn2[C@@H]1O[C@H](COP(=O)(O)OP(=O)(O)OP(=O)(O)O)[C@@H](O)[C@H]1O", "note": "[ATP]", "values": [{"measurement": "competing off bound [32P] 2′3′-cGAMP", "setting": "[8]", "value": "not"}, {"measurement": "competition of bound [32P] 2′3′-cGAMP by unlabeled nucleotide", "setting": "[9]", "value": "not ATP, GTP, cAMP, or cGMP could compete off"}, {"measurement": "competition of bound [32P] 2′3′-cGAMP by unlabeled nucleotide", "setting": "[10]", "value": "not ATP, GTP, cAMP, or cGMP could compete off"}]}, {"smiles": "Nc1nc2c(ncn2[C@@H]2O[C@H](COP(=O)(O)OP(=O)(O)OP(=O)(O)O)[C@@H](O)[C@H]2O)c(=O)[nH]1", "note": "[GTP]", "values": [{"measurement": "competing off bound [32P] 2′3′-cGAMP", "setting": "[8]", "value": "not"}, {"measurement": "competition of bound [32P] 2′3′-cGAMP by unlabeled nucleotide", "setting": "[9]", "value": "not ATP, GTP, cAMP, or cGMP could compete off"}, {"measurement": "competition of bound [32P] 2′3′-cGAMP by unlabeled nucleotide", "setting": "[10]", "value": "not ATP, GTP, cAMP, or cGMP could compete off"}]}, {"smiles": "O=C(NC1CCCCC1C(=O)O)c1cnn2c(O)cc(-c3ccccc3)nc12", "note": "(centres unmarked) [PF-06928215]", "values": [{"measurement": "IC50", "setting": "[11]", "value": "~12", "unit": "µM"}, {"measurement": "IC50", "setting": "[12]", "value": 5, "unit": "µM"}]}, {"smiles": "Nc1nc2c(ncn2[C@@H]2O[C@@H]3COP(=O)(O)O[C@H]4[C@@H](O)[C@H](n5cnc6c(=O)[nH]c(N)nc65)O[C@@H]4COP(=O)(O)O[C@H]3[C@H]2O)c(=O)[nH]1", "note": "[c-di-GMP, 3′,3′-cyclic di-GMP]", "values": [{"measurement": "affinity for STING relative to 2′3′-cGAMP", "setting": "[2]", "value": "markedly reduced affinities"}]}, {"smiles": "Nc1nc2c(ncn2[C@@H]2O[C@@H]3COP(=O)(O)O[C@H]3[C@H]2O)c(=O)[nH]1", "note": "[cGMP]", "values": [{"measurement": "competing off bound [32P] 2′3′-cGAMP", "setting": "[8]", "value": "not"}, {"measurement": "competition of bound [32P] 2′3′-cGAMP by unlabeled nucleotide", "setting": "[9]", "value": "not ATP, GTP, cAMP, or cGMP could compete off"}, {"measurement": "competition of bound [32P] 2′3′-cGAMP by unlabeled nucleotide", "setting": "[10]", "value": "not ATP, GTP, cAMP, or cGMP could compete off"}]}]}
